Data from patent US8163709B2, “TAK1-D mediated induction of cell death in human cancer cells by specific sequence short double-stranded RNAS” (Board of Regents of the University of Texas System, priority 2008, dated 2012).
“Also recorded” adds a separate entry of the source.

Columns and labels:
TAK1-D [1] = target: T1, TAK1-D (Homo sapiens, UniProt O43318); experiment: Subcellular localization of TAK1-D in H460 cells (fractionation, immunofluorescence); format: cell-based; parameters: endogenous in cells; host or cells: NCI-H460
T1 sequence (O43318 1-491 isoform O43318-4): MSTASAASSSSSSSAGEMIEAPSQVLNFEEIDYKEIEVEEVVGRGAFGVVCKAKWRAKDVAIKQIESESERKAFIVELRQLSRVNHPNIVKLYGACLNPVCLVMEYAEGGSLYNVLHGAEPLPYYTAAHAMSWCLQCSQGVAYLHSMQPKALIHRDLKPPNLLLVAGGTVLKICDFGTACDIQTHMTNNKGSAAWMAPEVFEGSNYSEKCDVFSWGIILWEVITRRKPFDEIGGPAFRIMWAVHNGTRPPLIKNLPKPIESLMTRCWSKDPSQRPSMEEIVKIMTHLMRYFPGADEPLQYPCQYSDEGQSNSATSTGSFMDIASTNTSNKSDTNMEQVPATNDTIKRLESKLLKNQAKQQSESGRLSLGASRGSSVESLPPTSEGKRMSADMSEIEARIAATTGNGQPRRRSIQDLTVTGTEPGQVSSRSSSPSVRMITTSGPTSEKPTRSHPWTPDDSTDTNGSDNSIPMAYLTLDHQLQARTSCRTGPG
Method: Subcellular fractionation. About […] H460 cells growing in a 10 cm dish were transfected with 20 nM dsRNA si5 or si6. […] A crude nuclear pellet (P.7) was obtained by centrifugation at 700 g and 4° C. for 5 minutes. The supernatant was centrifuged at 10,000 g and 4° C. for 30 minutes producing the P10 pellet and finally separated by ultracentrifugation (Sorvall 90SE ultracentrifuge and Sorvall AH-629 rotor) at 150,000 g and 4° C. for 1 hour into pellet (P150) and supernatant (S150). Proteins from the S150 fraction were concentrated by precipitation with 10% trichloroacetic acid (TCA). All pellets were dissolved in SDS sample buffer.
Immunofluorescence. H460 cells stably expressing TAK1-D fused on its c-terminus to a FLAG tag were generated as described above for the K36W mutant. Cells were transfected with 20 nM si5 or si6 and fixed in 4% formaldehyde 6 h later. After 15 min of fixation at room temperature cells were washed 3 times in PBS and permeabilized in methanol at −20° C. for 10 min. After one wash in PBS slides were blocked for 1 hour at room temperature in PBS containing 1% BSA. […] After three 5 min washes in PBS cells were visualized by fluorescence microscopy. […]

cdc25A = cdc25A phosphorylation in nuclei of NCI-H460 cells; format: cell-based, human; details: 2 h
Excerpt: P38 MAPK as well as SPK/JNK have a large number of downstream targets. Amongst these, the phosphorylation of the cell cycle control phosphatase cdc25 (Bulavin et al., 2001; Goss et al., 2003) are of particular interest, as these phosphorylations have the potential to transduce an immediate and direct effect of TAK1-D activation to the cell cycle. […] In contrast, both cdc25A and cdc25B were found in the nucleus and therefore capable of cell cycle control. […] The occurrence of this shifted form of cdc25A is indicative of phosphorylation and inactivation of cdc25A (Zhao et al., 2002). The amount of cdc25B in the nucleus decreases with kinetics similar to the phosphorylation of cdc25A, indicative for a phosphorylation dependent translocation and proteolytic digestion of cdc25B (Cans et al., 1999). Therefore, it can be concluded that activation of TAK1-D in NCI-H460 cells leads to an inactivation of cdc25A and cdc25B through p38 MAPK and SAPK/JNK mediated phosphorylation and proteolytic destruction.

TAK1-D [2] = target: T1, TAK1-D; experiment: Binding of radiolabeled siRNAs to immobilized FLAG-TAK1-D; parameters: made in house; details: kinase assay buffer conditions, 3 experiments
Excerpt: FIGS. 2A-C: Effect of dsRNAs on the activity of purified recombinant TAK1-D protein. (FIG. 2A) In vitro kinase assay showing the activation of TAK1-D autophosphorylation by siRNA si5. FLAG-tagged TAK1-D and His-tagged TAB1 were coexpressed in Hela cells and purified by immunoprecipitation with anti FLAG antibody. […] Error bars indicate the standard error of 3 experiments.
To verify if siRNA si5 indeed interacts with TAK1-D directly, the activation of the kinase was studied in vitro using purified proteins. […] To test whether the increased activation of the TAK1-D/TAB1 complex by siRNA si5 is caused by an increased affinity of the RNA molecule to the kinase, binding of radiolabeled siRNAs to immunoprecipitated FLAG tagged TAK1-D was measured. In FIG. 2C the amount of RNA bound to immobilized FLAG-TAK1-D is given.

[3] = tested on: normal human skin fibroblasts; experiment: Crystal Violet staining of normal human skin fibroblasts; format: cell-based; details: up to 20 nM, 48 h
Method: In order to obtain preliminary data describing the response of normal tissue cells to dsRNA mediated Tak1-D activation normal human fibroblasts as well as human bronchial epithelial cells (HBEC) were plated into 12-well multiwell plates, treated with siRNA si5 or si6 in different concentrations and stained with Crystal Violet 48 h later. […] […].

“si5: 21-mer siRNA against TLK1 mRNA: GGCUUUUGACCUUUAUGAAtt (SEQ ID NO: 2) / ttCCGAAAACUGGAAAUACUU (SEQ ID NO: 3) (sense GGCUUUUGACCUUUAUGAATT; antisense TTCCGAAAACUGGAAAUACUU; chemistry not given here; one strand is listed 3' to 5')” was tested, and the “colocalization of FLAG-TAK1-D and ribosomes (S6)” value (TAK1-D [1]; H460, 20 nM, 6 h, immunofluorescence) was “increased colocalization”, the “amount of TAK1-D in the 150,000 g pellet” value (TAK1-D [1]; H460, 4 h, compared to control si6) was “increased” and the “phosphorylation of nuclear cdc25A (intensity of the upper band)” value (cdc25A) was “increases in intensity within 2 h; also recorded: increased phosphorylation as early as 2 h”. For the same substance, the “amount of RNA bound to immobilized FLAG-TAK1-D” value (TAK1-D [2]) was “significantly greater; also recorded: increased binding” and the “growth inhibitory or cytotoxic effect” value [3] was “no growth inhibitory or cytotoxic effect could be observed; also recorded: no cytotoxicity or growth delay”.
